Measured values from patent US20170166555A1, “FUNCTIONALISED AND SUBSTITUTED INDOLES AS ANTI-CANCER AGENTS” (Novogen Limited, priority 2013, published 2017).
Like-named read-outs stand apart in the source and are kept apart here.

Assays:
Test in all cases: Anti-proliferative assay, cell-titre luminescent reagent, 72 h (GVK-BIO)
Assay type in all cases: cell-based
[1] = test system: A549 non-small cell lung carcinoma cells; conditions: read-out: IC50/μM Lung (NSLC) A549
In short: (§1)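 Luminescent cell-titre viability was read 30 min after reagent addition, following 72 h compound exposure of cells pre-cultured 24 h at 37 °C, 5% CO2. Dose sets were 30–0.03 μM (4 points) or 30–0.1 μM (6 points), giving IC50 by linear regression or EC50 by nonlinear variable-slope fit vs vehicle.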

[2] = test system: CaCo2 colorectal cancer cells
In short: as §1

[3] = test system: DU145 prostate cancer cells
In short: as §1

[4] = test system: MDA-MB-231 triple negative breast cancer cells
In short: as §1

[5] = test system: PC3 prostate cancer cells
In short: as §1

[6] = test system: SK-Mel-28 melanoma cells
In short: as §1

[7] = test system: SK-N-SH neuroblastoma cells
In short: as §1

[8] = Homo sapiens, A549, 72 h, 30, 10, 3, 1, 0.3 and 0.1 μM, nonlinear regression (Table 5)
[9] = Homo sapiens, Caco-2, 72 h, 30, 10, 3, 1, 0.3 and 0.1 μM, nonlinear regression (Table 5)
[10] = Homo sapiens, DU-145, 72 h, 30, 10, 3, 1, 0.3 and 0.1 μM, nonlinear regression (Table 5)
[11] = Homo sapiens, MDA-MB-231, 72 h, 30, 10, 3, 1, 0.3 and 0.1 μM, nonlinear regression (Table 5)
[12] = 30, 10, 3, 1, 0.3 and 0.1 μM, nonlinear regression (Table 5)
[13] = Homo sapiens, SK-MEL-28, 72 h, 30, 10, 3, 1, 0.3 and 0.1 μM, nonlinear regression (Table 5)
[14] = Homo sapiens, SK-N-SH, 30, 10, 3, 1, 0.3 and 0.1 μM, nonlinear regression (Table 5)
[15] = Homo sapiens, A549, 72 h, 30, 3, 0.3 and 0.03 μM, linear regression (Tables 2-4)
[16] = Homo sapiens, Caco-2, 72 h, 30, 3, 0.3 and 0.03 μM, linear regression (Tables 2-4)
[17] = Homo sapiens, DU-145, 72 h, 30, 3, 0.3 and 0.03 μM, linear regression (Tables 2-4)
[18] = Homo sapiens, MDA-MB-231, 72 h, 30, 3, 0.3 and 0.03 μM, linear regression (Tables 2-4)
[19] = 30, 3, 0.3 and 0.03 μM, linear regression (Tables 2-4)
[20] = Homo sapiens, SK-MEL-28, 72 h, 30, 3, 0.3 and 0.03 μM, linear regression (Tables 2-4)
[21] = Homo sapiens, SK-N-SH, 30, 3, 0.3 and 0.03 μM, linear regression (Tables 2-4)

Row | SMILES | IC50 [1, 8] [µM] | IC50 [2, 9] [µM] | IC50 [3, 10] [µM] | IC50 [4, 11] [µM] | IC50 [5, 12] [µM] | IC50 [6, 13] [µM] | IC50 [7, 14] [µM] | IC50 [1, 15] [µM] | IC50 [2, 16] [µM] | IC50 [3, 17] [µM] | IC50 [4, 18] [µM] | IC50 [5, 19] [µM] | IC50 [6, 20] [µM] | IC50 [7, 21] [µM] | IC50 [1, 19] [µM] | IC50 [2, 19] [µM] | IC50 [3, 19] [µM] | IC50 [4, 19] [µM] | IC50 [6, 19] [µM] | IC50 [7, 19] [µM]
1 | COc1cccc(NC(=O)c2ccc(Oc3ccc4c(ccn4CCCN(C)C)c3)cc2)c1 [Compound 4092, 4-((1-(3-(dimethylamino)propyl)-1H-indol-5-yl)oxy)-N-(3-methoxyphenyl)benzamide] | 8.3 | 17.1 | 16.7 | 22.6 | 38.3 | 13.3 | 13.8 |  |  |  |  |  |  |  |  |  |  |  |  | 
2 | COc1ccc(NC(=O)c2ccc(Oc3ccc4c(c3)c(C)c(C)n4CCCN(C)C)cc2)cc1 [Compound 4094, 4-((1-(3-(dimethylamino)propyl)-2,3-dimethyl-1H-indol-5-yl)oxy)-N-(4-methoxyphenyl)benzamide] | 2.7 | 4.2 | 2 | 1.7 | 1.5 | 3.8 | 1.8 |  |  |  |  |  |  |  |  |  |  |  |  | 
3 | Cc1c(C)n(CCCN(C)C)c2ccc(Oc3ccc(C(=O)Nc4ccc5c(c4)OCO5)cc3)cc12 [Compound 4095, N-(benzo[d][1,3]dioxol-5-yl)-4-((1-(3-(dimethylamino)propyl)-2,3-dimethyl-1H-indol-5-yl)oxy)benzamide] |  |  |  |  |  |  |  | 1 | 2.3 | 1.2 | 1.6 | 1.4 | 2.3 | 1.5 |  |  |  |  |  | 
4 | Cc1c(C)n(CCCN(C)C)c2ccc(Oc3ccc(C(=O)Nc4cccc(F)c4)cc3)cc12 [Compound 4096, 4-((1-(3-(dimethylamino)propyl)-2,3-dimethyl-1H-indol-5-yl)oxy)-N-(3-fluorophenyl)benzamide] |  |  |  |  |  |  |  | 2.9 | 2.7 | 3.3 | 2.6 | 2.5 | 3.5 | 3.7 |  |  |  |  |  | 
5 | COc1cccc(NC(=O)c2ccc(Oc3ccc4c(c3)c(C)c(C)n4CCCN(C)C)cc2)c1 [Compound 4097, 4-((1-(3-(dimethylamino)propyl)-2,3-dimethyl-1H-indol-5-yl)oxy)-N-(3-methoxyphenyl)benzamide] |  |  |  |  |  |  |  | 3 | 3.5 | 3.5 | 2.5 | 4.9 | 3.6 | 2.9 |  |  |  |  |  | 
6 | Cc1c(C)n(CCCN(C)C)c2ccc(Oc3ccc(C(=O)Nc4ccccc4)cc3)cc12 [Compound 4098, 4-((1-(3-(dimethylamino)propyl)-2,3-dimethyl-1H-indol-5-yl)oxy)-N-phenylbenzamide] |  |  |  |  |  |  |  | 2.9 | 4 | 3.4 | 3.7 | 3.3 | 3.8 | 3.4 |  |  |  |  |  | 
7 | CN(C)CCCn1ccc2cc(Nc3cccc(C(=O)Nc4ccc(F)cc4)c3)ccc21 [Compound 4099, 3-((1-(3-(dimethylamino)propyl)-1H-indol-5-yl)amino)-N-(4-fluorophenyl)benzamide] |  |  |  |  |  |  |  |  |  |  |  | 4.9 |  |  | 4.1 | > 30 | 5.5 | 3.4 | 3.7 | 3.9
8 | COc1ccc(NC(=O)c2ccc(Nc3ccc4c(ccn4CCCN(C)C)c3)cc2)cc1 [Compound 4100, 4-((1-(3-(dimethylamino)propyl)-1H-indol-5-yl)amino)-N-(4-methoxyphenyl)benzamide] |  |  |  |  |  |  |  | 4.5 | > 30 | > 30 | 5.2 | > 30 | 2.5 | 3.6 |  |  |  |  |  | 
9 | CN(C)CCCn1ccc2cc(Nc3ccc(C(=O)Nc4ccc5c(c4)OCO5)cc3)ccc21 [Compound 4101, N-(benzo[d][1,3]dioxol-5-yl)-4-((1-(3-(dimethylamino)propyl)-1H-indol-5-yl)amino)benzamide] |  |  |  |  |  |  |  | 4 | > 30 | 5.2 | 3.9 | 7.8 | 3.3 | 3.4 |  |  |  |  |  | 
10 | CN(C)CCCn1ccc2cc(Nc3ccc(C(=O)Nc4cccc(F)c4)cc3)ccc21 [Compound 4102, 4-((1-(3-(dimethylamino)propyl)-1H-indol-5-yl)amino)-N-(3-fluorophenyl)benzamide] |  |  |  |  |  |  |  | 4 | > 30 | 6 | 3.6 | 5.5 | 3.5 | 3.5 |  |  |  |  |  | 
11 | COc1cccc(NC(=O)c2ccc(Nc3ccc4c(ccn4CCCN(C)C)c3)cc2)c1 [Compound 4103, 4-((1-(3-(dimethylamino)propyl)-1H-indol-5-yl)amino)-N-(3-methoxyphenyl)benzamide] |  |  |  |  |  |  |  | 3 | 5 | 3.7 | 2.7 | 5.4 | 5.4 | 2.9 |  |  |  |  |  | 
12 | Cc1c(C)n(CCCN(C)C)c2ccc(Nc3ccc(C(=O)Nc4ccc(F)cc4)cc3)cc12 [Compound 4104, 4-((1-(3-(dimethylamino)propyl)-2,3-dimethyl-1H-indol-5-yl)amino)-N-(4-fluorophenyl)benzamide] |  |  |  |  |  |  |  | 4 | 3.2 | 4.1 | 4.2 | 4.1 | 3.6 | 3.4 |  |  |  |  |  | 
13 | COc1ccc(NC(=O)c2ccc(Nc3ccc4c(c3)c(C)c(C)n4CCCN(C)C)cc2)cc1 [Compound 4105, 4-((1-(3-(dimethylamino)propyl)-2,3-dimethyl-1H-indol-5-yl)amino)-N-(4-methoxyphenyl)benzamide] |  |  |  |  |  |  |  | 3.6 | 2.6 | 3.6 | 2.7 | 3.7 | 2.6 | 3.4 |  |  |  |  |  | 
14 | Cc1c(C)n(CCCN(C)C)c2ccc(Nc3ccc(C(=O)Nc4ccc5c(c4)OCO5)cc3)cc12 [Compound 4106, N-(benzo[d][1,3]dioxol-5-yl)-4-((1-(3-(dimethylamino)propyl)-2,3-dimethyl-1H-indol-5-yl)amino)benzamide] |  |  |  |  |  |  |  | 2.4 | 2.8 | 3.1 | 1.9 | 3.6 | 2.6 | 1.8 |  |  |  |  |  | 
15 | Cc1c(C)n(CCCN(C)C)c2ccc(Nc3ccc(C(=O)Nc4cccc(F)c4)cc3)cc12 [Compound 4107, 4-((1-(3-(dimethylamino)propyl)-2,3-dimethyl-1H-indol-5-yl)amino)-N-(3-fluorophenyl)benzamide] |  |  |  |  |  |  |  | 2.9 | 3.6 | 3.5 | 2.8 | 3.5 | 2.8 | 3.6 |  |  |  |  |  | 
16 | COc1cccc(NC(=O)c2ccc(Nc3ccc4c(c3)c(C)c(C)n4CCCN(C)C)cc2)c1 [Compound 4108, 4-((1-(3-(dimethylamino)propyl)-2,3-dimethyl-1H-indol-5-yl)amino)-N-(3-methoxyphenyl)benzamide] |  |  |  |  |  |  |  | 3.4 | 2.1 | 3.5 | 2.2 | 3.6 | 2.9 | 2.9 |  |  |  |  |  | 
17 | Cc1c(C)n(CCCN(C)C)c2ccc(CN3CCN(CCc4ccc(F)cc4)CC3)cc12 [Compound 4109, 3-(5-((4-(4-fluorophenethyl)piperazin-1-yl)methyl)-2,3-dimethyl-1H-indol-1-yl)-N,N-dimethylpropan-1-amine] | 6.5 | 9.1 | 5.3 | 3.6 | 9.5 | 1 | 3.7 |  |  |  |  |  |  |  |  |  |  |  |  | 
18 | Cc1c(C)n(CCCN2CCN(C)CC2)c2ccc(CN3CCN(CCc4ccc(F)cc4)CC3)cc12 [Compound 4110, 5-((4-(4-fluorophenethyl)piperazin-1-yl)methyl)-2,3-dimethyl-1-(3-(4-methylpiperazin-1-yl)propyl)-1H-indole] | 33.2 | 12.9 | 22.7 | 6.9 | 17.7 | 4.4 | 4.2 |  |  |  |  |  |  |  |  |  |  |  |  | 
19 | COc1ccc(CCN2CCN(Cc3ccc4c(c3)c(C)c(C)n4CCCN3CCN(C)CC3)CC2)cc1 [Compound 4111, 5-((4-(4-methoxyphenethyl)piperazin-1-yl)methyl)-2,3-dimethyl-1-(3-(4-methylpiperazin-1-yl)propyl)-1H-indole] | 5.5 | 7.9 | 11.3 | 3.9 | 7.5 | 2.4 | 3.4 |  |  |  |  |  |  |  |  |  |  |  |  | 
